Where only a bound is given, the exact number is not on record here.

One experiment concerns the target SARS-CoV-2 Papain-Like Protease (PLpro) (Severe acute respiratory syndrome coronavirus 2 (2019-nCoV) (SARS-CoV-2), UniProt P0DTD1). The experiment is described as follows: biochemical. The settings on record: PLpro enzymatic fluorescence assay; class symbols; read-out: PLpro IC50.
The IC50 is the concentration that inhibits the measured activity by half. Take `C=C(C)c1cc(C2(NC(=O)c3cc(OC[C@@H]4CCCN4)ccc3C)CC2)c2cccnc2c1` [Compound 715, (S)-2-Methyl-N-(1-(7-(prop-1-en-2-yl)quinolin-5-yl)cyclopropyl)-5-(pyrrolidin-2-ylmethoxy)benzamide]: the IC50 is below 100 nM.

For the molecule `Cc1ncc(-c2cc(C3(NC(=O)c4cc(OC[C@@H]5CCN5C)ccc4C)CC3)c3cccnc3c2)o1` [Compound 716, (S)-2-Methyl-5-((1-methylazetidin-2-yl)methoxy)-N-(1-(7-(2-methyloxazol-5-yl)quinolin-5-yl)cyclopropyl)benzamide], the IC50 is below 100 nM.

Take `C=Cc1cc(C2(NC(=O)c3cc(OC[C@@H]4CCCN4C)ccc3C)CC2)c2cccnc2c1` [Compound 717, (S)-2-Methyl-5-((1-methylpyrrolidin-2-yl)methoxy)-N-(1-(7-vinylquinolin-5-yl)cyclopropyl)benzamide]: the IC50 is below 100 nM.

`Cc1ccc(OC[C@@H]2CCN2C)cc1C(=O)NC1(c2cc(-c3nc4ccccc4o3)cc3ncccc23)CC1` [Compound 718, (S)—N-(1-(7-(Benzo[d]oxazol-2-yl)quinolin-5-yl)cyclopropyl)-2-methyl-5-((1-methylazetidin-2-yl)methoxy)benzamide]: the IC50 is below 100 nM.

On to `C=C(C)c1cc(C2(NC(=O)c3cc(OC[C@@H]4CCCN4C)ccc3C)CC2)c2cccnc2c1` [Compound 719, (S)-2-Methyl-5-((1-methylpyrrolidin-2-yl)methoxy)-N-(1-(7-(prop-1-en-2-yl)quinolin-5-yl)cyclopropyl)benzamide], for which the 50% inhibitory concentration (IC50) is below 100 nM.

Regarding `CC#Cc1cc(C2(NC(=O)c3cc(OC[C@@H]4CCN4C)ccc3C)CC2)c2cccnc2c1` [Compound 721, (S)-2-Methyl-5-((1-methylazetidin-2-yl)methoxy)-N-(1-(7-(prop-1-yn-1-yl)quinolin-5-yl)cyclopropyl)benzamide], the 50% inhibitory concentration (IC50) is below 100 nM.

As to `Cc1ccc(OC[C@@H]2CCN2)cc1C(=O)NC1(c2cc(N3CCC3)cc3ncccc23)CC1` [Compound 722, (S)—N-(1-(7-(Azetidin-1-yl)quinolin-5-yl)cyclopropyl)-5-(azetidin-2-ylmethoxy)-2-methylbenzamide], the IC50 was below 100 nM.

On to `Cc1ccc(OC[C@@H]2CCN2C)cc1C(=O)NC1(c2cc(N3CCC3)cc3ncccc23)CC1` [Compound 723, (S)—N-(1-(7-(Azetidin-1-yl)quinolin-5-yl)cyclopropyl)-2-methyl-5-((1-methylazetidin-2-yl)methoxy)benzamide], for which the IC50 was below 100 nM.

Take `[2H]C([2H])([2H])N1CC[C@H]1COc1ccc(C)c(C(=O)NC2(c3cc(OC)cc4ncccc34)CC2)c1` [Compound 732, (S)-N-(1-(7-Methoxyquinolin-5-yl)cyclopropyl)-2-methyl-5-((1-(methyl-d3)azetidin-2-yl)methoxy)benzamide]: the IC50 was below 100 nM.

With `Cc1ccc(OC[C@@H]2CCN2)cc1C(=O)NC1(c2cc(-c3ncn4ccccc34)cc3ncccc23)CC1` [Compound 733, (S)-5-(Azetidin-2-ylmethoxy)-N-(1-(7-(imidazo[1,5-a]pyridin-1-yl)quinolin-5-yl)cyclopropyl)-2-methylbenzamide], the half-maximal inhibitory concentration (IC50) was below 100 nM.

Consider `C=C(C)c1cc(C2(NC(=O)c3cc(OC[C@H](C)N)ccc3C)CC2)c2cccnc2c1` [Compound 734, (S)-5-(2-Aminopropoxy)-2-methyl-N-(1-(7-(prop-1-en-2-yl)quinolin-5-yl)cyclopropyl)benzamide], for which the IC50 was below 100 nM.

The experiment is the same for the next values; noted with them: SARS-CoV-2 PLpro enzymatic fluorescence assay; read-out: PLpro IC50.
Take `C=Cc1cc(C2(NC(=O)c3cc(OC[C@@H]4CCN4C)c(N)cc3C)CC2)c2cccnc2c1` [Compound 726, (S)-4-Amino-2-methyl-5-((1-methylazetidin-2-yl)methoxy)-N-(1-(7-vinylquinolin-5-yl)cyclopropyl)benzamide]: the 50% inhibitory concentration (IC50) was below 100 nM.

For `Cc1ccc(OC[C@@H]2CCN2C)cc1C(=O)NC1(c2cc(N)cc3ncccc23)CC1` [Compound 729, (S)-N-(1-(7-Aminoquinolin-5-yl)cyclopropyl)-2-methyl-5-((1-methylazetidin-2-yl)methoxy)benzamide], the IC50 was below 100 nM.

The values are drawn from patent US20250025443A1, “COMPOUNDS AND METHODS FOR TREATING CORONA VIRUSES” (CLEAR CREEK BIO, INC., priority 2021, published 2025).
